How the values were obtained:
Type in all cases: in vivo
[1] = system: brown rice-hoppers (Niliparvata lugens Stal); assay: Use Example B: activity in prophylactic treatment of leaves against brown rice-hoppers; conditions: 48 h; for mortality at 0.1 %: read-out: activity
From the text: Activity in prophylactic treatment of leaves against brown rice-hoppers (Niliparvata lugens Stal)
Rice seedlings (Oryzae sativa L.) in the two leaf stage (about 10 per polystyrene pot of size 6.5 x 6.5 cm) were either untreated or […] until dripping wet, with an aqueous preparation containing 0.1 % of active material. After drying the sprayed leaves, a transparent cylinder was placed over each pot and through an opening, about 30 brown rice-hoppers (Niliparvata lugens) in the 4-5 stage, anaesthetised with carbon dioxide, were introduced into each pot. After closing the opening with a fine mesh screen, the pots were kept for 2 days at 28° C and 16 hours/day of light in the glasshouse, the amount of dead hoppers was determined. The percentage mortality was then estimated and the activity calculated using Abbott's method in comparison with the untreated controls.

[2] = system: corn rootworm (Diabrotica undecimpunctata); assay: Use Example D: activity against eggs/larvae of the corn rootworm; conditions: 168 h; for activity: corn rootworm, in vivo; for mortality at 0.1 %: Diabrotica undecimpunctata, aqueous emulsion 0.1%, 0.2 ml pipetted into soil, 7 days at 25 C, death of eggs or newly hatched larvae
Protocol: Activity against eggs/larvae of the corn rootworm (Diabrotica undecimpunctata)
The compounds of the invention were made up as aqueous emulsions at a concentration of 0.1%. Into the soil in polystyrene petri dishes, containing maize seedlings (1 seedling/dish) and ca. 50 eggs of the corn rootworm (Diabrotica undecimpunctata) were pipetted 0.2 ml of these preparations. The closed dishes were left at 25 C under extended daylight conditions for 7 days. The criterion for judging the activity was the death of eggs or newly hatched larvae at the end of the test.

[3] = system: Aphis fabae; assay: Activity in prophylactic treatment of leaf discs against Aphis fabae; conditions: 48 h; for mortality at 0.1 %: Aphis fabae, foliar, 0.1% aqueous preparation, field bean leaf discs infested with wingless stages, 2 days at 25 C, percentage mortality, Abbott's method
Protocol: From the primary leaf of field beans (Phaseolus vulgaris nanus Aschers.), 24 mm diameter discs were cut. Some of these were treated with a 0.1% aqueous preparations of compounds of the invention and these along side untreated discs were placed on filter papers with the underside of the leaves turned upwards. After drying the test pieces, they were each infested with wingless stages of Aphis fabae (approx 100 per leaf piece). The experiment was replicated 3 times. The leaves were kept on wet filter papers for 2 days at 25 C and 16 hours light per day. The percentage mortality was then estimated and the activity calculated using Abbott's method in comparison with the untreated controls.

[4] = system: two spotted mite (Tetranychus urticae Koch); assay: Use Example C: activity in the prophylactic treatment of feed against the two spotted mite; conditions: foliar, 0.1 % aqueous preparation, field bean leaf discs, adults and eggs counted after 3 days at 25 C, larvae after a further 7 days, Abbott's method
Protocol: Activity in the prophylactic treatment of feed against the two spotted mite (Tetranychus urticae Koch)
From the primary leaf of field beans (Phaseolus vulgaris nanus Aschers.) 14 mm diameter discs were cut. Some of these were treated with a 0.1 % aqueous preparations of compounds of the invention and these along side untreated discs were placed on filter papers with the underside of the leaves turned upwards. After drying the test pieces, they were each infested with six adult female Tetranychus urticae and maintained for 3 days at 25 C and 16 hours light per day. The experiment was replicated 4 times. Dead and alive adults were then counted and removed. Similarly the number of eggs laid were counted. After a further 7 days, the number of living larvae were counted, the activity calculated using Abbott's method in comparison with the untreated controls.

[5] = system: cotton bollworm (Heliothis viriscens); assay: whole plant or invertebrate; conditions: 48 h, read-out: activity
Protocol: Activity against larvae (L1) of the cotton bollworm (Heliothis viriscens)
Compounds of the invention were made up as aqueous preparations at a concentration of 0.1 %. Into these, feed material was dipped for 2 seconds. After drying the feed material was put into into polystyrene petri dishes. After an hour, 10 L1 of the cotton bollworm (Heliothis viriscens) were counted into the dishes. The closed dishes were left for up to 7 days at 25 °C under extended daylight conditions. The % mortality of the larvae after two days indicated the level of activity.

[6] = system: cotton army worm (Spodoptera littoralis); assay: Use Example F: ovicidal activity against eggs of the cotton army worm; conditions: aqueous preparation 0.1 %; one day old eggs dipped; four days; % inhibition of hatching of the eggs
From the text: Ovicidal activity against eggs of the cotton army worm (Spodoptera littoralis).
The compounds of the invention were made up as aqueous preparations at a concentration of 0.1 %. One day old eggs that had been laid on filter paper by fertilised female moths were dipped in the preparations until they were completely wet and then placed in closed petri dishes in the laboratory under extended daylight conditions for four days. The % inhibition of hatching of the eggs in comparison with untreated eggs indicates the level of activity.

[7] = system: house fly (Musca domestica); assay: Use Example J: activity against house fly; conditions: adult houseflies on treated filter papers; 22 C for 24 hours
Protocol: Activity against house fly (Musca domestica)
Aliquots (0.7 ml) of acetone solutions or suspensions of test compounds at various concentrations were applied to filter papers (9 cm diameter) placed in the bottom of petri dishes (9 cm diameter) closed by glass lids. After evaporation of solvent, the treated surfaces, together with controls treated with acetone alone, were then infested with adult houseflies, (Musca domestica) and held at 22 C for 24 hours. The percentage mortality of the insects was then recorded.

[8] = system: Sheep blowfly (Lucilia sericata); assay: whole plant or invertebrate; conditions: 24 h, read-out: LCso
Protocol: Activity against Sheep blowfly (Lucilia sericata)
1 ml aliquots of acetone solutions or suspensions, containing test compound at various concentrations, were applied to cotton wool dental rolls (1 cm x 2 cm), contained in glass vials 2 cm diameter x 5 cm long. After drying, the treated materials were then impregnated with 1 ml of nutrient solution, infested with approximately 30 first instar larvae of sheep blow fly (Lucilia sericata), closed by a cotton wool plug and held at 25 C for 24 hours.

[9] = system: Boophilus microplus; assay: whole plant or invertebrate; conditions: Rhipicephalus microplus, 48 h, read-out: concentration causing 50% mortality
Protocol: Tickicidal activity against Boophilus microplus
9 cm diameter filter papers were impregnated with 1 ml aliquots of acetone solutions of test compound at various concentrations. The papers were allowed to dry and then folded into envelopes in which cattle tick larvae, (Boophilus microplus) were enclosed and held at 25°C and 80% R.H. for 48 hours. The percentage mortality of tick larvae was then recorded and compared with controls.

[10] = system: corn rootworm (Diabrotica undecimpunctata); assay: Use Example E: soil insecticide activity against eggs/larvae of the corn rootworm; conditions: aqueous preparation 0.0025%, 5 ml into 50 cm^3 earth, 10 days at 25 C
Protocol: Soil insecticide activity against eggs/larvae of the corn rootworm (Diabrotica undecimpunctata)
5 ml of these preparations were pipetted into 300 ml clear plastic beakers, containing 50 cm^3 earth and ca. 50 Diabrotica eggs, as well as 2 presoaked maize seeds. The sealed pots were left for 10 days under extended daylight conditions at 25 C. The criterion for judging the activity after 10 days was the larvicidal activity and the root growth of the emerging maize plants in the treated pots in comparison with untreated controls.

Compound	mortality at 0.1 % [1] [%]	mortality at 0.1 % [2] [%]	mortality at 0.1 % [3] [%]	mortality at 0.1 % [4] [%]	mortality at 0.1 % [5] [%]	further results
C=C(C)C(C)(C)CCCc1cccc(Oc2ccccc2)c1 [Example 1, 6-(3-Phenoxyphenyl)-2,3,3,-trimethyl-1-hexene]						activity ([1]; brown rice-hopper, in vivo): ≥ 80%; activity [2]: 80-100%
CC(C)(COCc1ccc(F)c(Oc2ccccc2)c1)C1=CCCCC1 [Example 2, 2-(Cyclohexen-1-yl)-2-methyl-1-(4-fluoro-3-phenoxybenzyloxy)propane]	≥ 80	80 to 100	≥ 80			
C=C(C)C(C)(C)CCCc1ccc(F)c(Oc2ccccc2)c1 [Example 4, 6-(4-fluoro-3-phenoxyphenyl)-2,3,3-trimethyl-1-hexene]	≥ 80	80 to 100	≥ 80	80 to 100	80 to 100	activity [6]: 80 - 100%
C=C(C)C(C)(C)COCc1ccc(F)c(Oc2ccccc2)c1 [Example 5, 4-(4-fluoro-3-phenoxybenzyloxy)-2,3,3-trimethyl-1-butene]		80 to 100	≥ 80	80 to 100	80 to 100	LDso [7]: less than 1000 mg/m^2; LC50 [8]: < 300 µg/mL; activity [6]: 80 - 100%; LC50 [9]: ≤ 100 µg/mL
C=C(Br)C(C)(C)COCc1cccc(Oc2ccccc2)c1 [Example 7, 2-bromo-3,3-dimethyl-4-(3-phenoxy-benzyloxy)-1-butene]		80 to 100	≥ 80	80 to 100		
CC(C)(COCc1cccc(Oc2ccccc2)c1)C1=CCCCC1 [Example 8, 2-(cyclohexen-1-yl)-2-methyl-1-(3-phenoxybenzyloxy)propane]		80 to 100			80 to 100	
CC(C)(COCc1ccc(F)c(Oc2ccccc2)c1)C1=CCCC1 [Example 10, 2-(cyclopenten-1-yl)-1-(4-fluoro-3-phenoxybenzyloxy)-2-methylpropane]			≥ 80	80 to 100	80 to 100	
C=C(c1ccccc1)C(C)(C)COCc1ccc(F)c(Oc2ccccc2)c1 [Example 14, 3,3-dimethyl-4-(4-fluoro-3-phenoxy-benzyloxy)-2-phenyl-1-butene]	≥ 80					
C=C(c1ccccc1)C(C)(C)COCc1cccc(-c2ccccc2)c1C [Example 15, 3,3-dimethyl-4-(2-methyl-3-phenyl-benzyloxy)-2-phenyl-1-butene]				80 to 100		
C=C(C)C(C)(C)COCc1cccc(Oc2ccccc2)c1 [Example 16, 4-(3-phenoxybenzyloxy)-2,3,3-trimethyl-1-butene]	≥ 80					LDso [7]: less than 1000 mg/m^2; mortality at 0.0025 % ([10]; Diabrotica undecimpunctata, soil, 240 h, read-out: larvicidal activity): 90 to 100%; root growth of the emerging maize plants ([10]; in comparison with untreated controls): good root growth; LC50 [8]: < 300 µg/mL; LC50 [9]: ≤ 100 µg/mL
C=C(C)C(C)(C)COCc1cccc(Oc2ccccc2)n1 [Example 17, 4-(6-phenoxypyridin-2-ylmethoxy)-2,3,3-trimethyl-1-butene]	≥ 80	80 to 100				
C=C(C)C(C)(C)CCCc1cccc(Oc2ccccc2)n1 [Example 18, 6-(6-phenoxypyridin-2-yl)-2,3,3-trimethyl-1-hexene]	≥ 80	80 to 100	≥ 80	80 to 100		
C=C(C)C(C)(C)COCc1cccc(Oc2ccc(Cl)cc2)c1 [Example 21, 4-[3-(4-chlorophenoxy)benzyloxy]-2,3,3-trimethyl-1-butene]	≥ 80	80 to 100	≥ 80	80 to 100		
C=C(C)C(C)(C)COCc1cccc(Oc2cccc(C(F)(F)F)c2)c1 [Example 24, 4-[3-(3-trifluoromethylphenoxy)-benzyloxy]-2,3,3-trimethyl-1-butene]	≥ 80					
C=C(C(C)C)C(C)(C)COCc1cccc(Oc2ccccc2)c1 [Example 25, 3-methylene-5-(3-phenoxy-benzyloxy)-2,4,4-trimethylpentane]	≥ 80					
C=C(C(C)C)C(C)(C)COCc1ccc(F)c(Oc2ccccc2)c1 [Example 26]						activity [2]: 80-100%; activity ([3]; aphis fabae, in vivo): ≥ 80%
CC(C)(COCc1ccc(F)c(Oc2ccccc2)c1)C1=CCOCC1 [Example 44, 1-(4-fluoro-3-phenoxybenzyloxy)-2-methyl-2-(4-oxacyclohexen-1-yl)propane]	≥ 80					
C=C(C)C1(COCc2ccc(F)c(Oc3ccccc3)c2)CC1 [Example 51, 2-(4-fluoro-3-phenoxybenzyloxy-methyl)-2-isopropenylcyclopropane]	≥ 80	80 to 100	≥ 80			
C=C(Br)C(C)(C)COCc1ccc(F)c(Oc2ccccc2)c1 [Example 59, 2-bromo-3,3-dimethyl-4-(4-fluoro-3-phenoxybenzyloxy)-1-butene]	≥ 80	80 to 100	≥ 80	80 to 100	80 to 100	
C=C(I)C(C)(C)COCc1ccc(F)c(Oc2ccccc2)c1 [Example 60, 3,3-dimethyl-2-iodo-4-(4-fluoro-3-phenoxybenzyloxy)-1-butene]	≥ 80		≥ 80	80 to 100		
C=C(c1ccccc1)C(C)(C)COCc1c(F)c(F)c(F)c(F)c1F [Example 61, 3,3-dimethyl-4-(2,3,4,5,6-pentafluoro-benzyloxy)-2-phenyl-1-butene]				80 to 100		
CC(C)(COCc1c(F)c(F)c(F)c(F)c1F)C1=CCCC1 [Example 62, 2-(cyclopenten-1-yl)-2-methyl-1-(2,3,4,5,6-pentafluorobenzyloxy)propane]					80 to 100	
C=C(I)C(C)(C)CCCc1cccc(Oc2ccccc2)c1 [Example 63, 3,3-dimethyl-2-iodo-6-(3-phenoxy-phenyl)-1-hexene]	≥ 80				80 to 100	

From patent EP0378285A1, “Substituted alkenes, processes for their preparation and their use as pesticides” (priority 1989, dated 1990)
